Tests used:
[1] = Conditioned Place Preference after morphine in SNI mice; type: in vivo; conditions: 4 doses
Source text: FIG. 24. Conditioned Place Preference (CPP) after conditioning with saline (control) and 4 doses of morphine (MOR) in SNI mice.

[2] = Mechanical pain threshold after SNI, morphine analgesia; type: in vivo; conditions: single S.C. injection, n=4
Experimental: FIG. 23. […] B. Analgesic effect of single S.C. injection of morphine on MT post-injury (SNI+MOR, n=4). Mean±SEM; F=4.62, *p<0.05 by one-way ANOVA before and after treatment; mean difference and 95% CI=−7.3, −14.5 to −0.135, p<0.05 by Bonferroni's Multiple Comparison test. 20 mg/Kg of MOR (n=4; F=19.03, **p<0.001 by one-way ANOVA).

**Q.** For CN1CC[C@]23c4c5ccc(O)c4O[C@H]2[C@@H](O)C=C[C@H]3[C@H]1C5 [morphine], which “Conditioned Place Preference (CPP)” value [1] is on record?
**A.** Its value is “induced CPP in a dose-dependent manner”.

**Q.** And the “mechanical pain threshold (MT), mean difference before and after treatment” value [2]?
**A.** The value was −7.3.

Reference: US12180255B2, “Compositions and methods for derepressing RE1 silencing transcription factor target genes” (Alcamena Stem Cell Therapeutics, LLC, priority 2019, dated 2024)
